Assay results from ChEMBL document CHEMBL1201862, “PubChem BioAssay data set” (2004).
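Results reflect a 48-hour exposure of cells in 96-well plates to compound at five concentrations. The concentration for 50% growth inhibition is given as GI50.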 Calls of active or inactive are those of the source. Cut-off read from the data, not from the text of the source: active = GI50 up to about 1.1 µM and inactive = higher.

Experiments:
Experiment in all cases: NCI-60 cell line screen, 48 h
NCI-H460 = tested on: NCI-H460
SK-MEL-5 = tested on: SK-MEL-5
MDA-MB-435 = tested on: MDA-MB-435
SF-295 = tested on: SF-295
PC-3 = tested on: PC-3
K562 = tested on: K562
EKVX = tested on: EKVX
MCF7 = tested on: MCF7
ACHN = tested on: ACHN
CCRF-CEM = tested on: CCRF-CEM
SK-MEL-2 = tested on: SK-MEL-2
MDA-N = tested on: MDA-N
RPMI-8226 = tested on: RPMI-8226
BT-549 = tested on: BT-549
COLO 205 = tested on: COLO 205
KM12 = tested on: KM12
UACC-257 = tested on: UACC-257
SF-268 = tested on: SF-268
SF-539 = tested on: SF-539
HL-60 = tested on: HL-60
CAKI-1 = tested on: CAKI-1
UO-31 = tested on: UO-31
HCT-15 = tested on: HCT-15
MDA-MB-231 = tested on: MDA-MB-231
Hs-578T = tested on: Hs-578T
HT-29 = tested on: HT-29
OVCAR-3 = tested on: OVCAR-3
RXF 393 = tested on: RXF 393
Malme-3M = tested on: Malme-3M
TK-10 = tested on: TK-10
T47D = tested on: T47D
IGROV-1 = tested on: IGROV-1
SW-620 = tested on: SW-620
NCI-H23 = tested on: NCI-H23
SK-MEL-28 = tested on: SK-MEL-28
786-0 = tested on: 786-0
OVCAR-8 = tested on: OVCAR-8
NCI-H226 = tested on: NCI-H226
UACC-62 = tested on: UACC-62
U-251 = tested on: U-251
M14 = tested on: M14
NCI/ADR-RES = tested on: NCI/ADR-RES
DU-145 = tested on: DU-145
SN12C = tested on: SN12C
A498 = tested on: A498
HCT-116 = tested on: HCT-116
MOLT-4 = tested on: MOLT-4
SNB-19 = tested on: SNB-19
SK-OV-3 = tested on: SK-OV-3
LOX IMVI = tested on: LOX IMVI
HOP-62 = tested on: HOP-62
A549 = tested on: A549
HCC 2998 = tested on: HCC 2998
OVCAR-5 = tested on: OVCAR-5
SNB-75 = tested on: SNB-75
NCI-H522 = tested on: NCI-H522
OVCAR-4 = tested on: OVCAR-4

CC1CC/C(=C\c2ccc(F)cc2)C2=C1C(c1ccc(F)cc1)N1C(=O)CSC1=N2 (stereo unspecified)
GI50 (NCI-H460): 30.8 µM (inactive)
GI50 (SK-MEL-5): 40 µM (inactive)
GI50 (MDA-MB-435): 91 µM (inactive)
GI50 (SF-295): 45.6 µM (inactive)
GI50 (PC-3): 25.6 µM (inactive)
GI50 (K562): 21.9 µM (inactive)
GI50 (EKVX): 17.7 µM (inactive)
GI50 (MCF7): 55.1 µM (inactive)
GI50 (ACHN): > 100 µM (inactive)
GI50 (CCRF-CEM): 41.2 µM (inactive)
GI50 (SK-MEL-2): > 100 µM (inactive)
GI50 (MDA-N): > 100 µM (inactive)
GI50 (RPMI-8226): 15.5 µM (inactive)
GI50 (BT-549): > 100 µM (inactive)
GI50 (COLO 205): > 100 µM (inactive)
GI50 (KM12): 35.7 µM (inactive)
GI50 (UACC-257): 62.1 µM (inactive)
GI50 (SF-268): > 100 µM (inactive)
GI50 (SF-539): > 100 µM (inactive)
GI50 (HL-60): 4.35 µM (inactive)
GI50 (CAKI-1): > 100 µM (inactive)
GI50 (UO-31): 87.9 µM (inactive)
GI50 (HCT-15): 43.3 µM
GI50 (MDA-MB-231): > 100 µM (inactive)
GI50 (Hs-578T): > 100 µM (inactive)
GI50 (HT-29): 23.2 µM (inactive)
GI50 (OVCAR-3): > 100 µM (inactive)
GI50 (RXF 393): 21.7 µM (inactive)
GI50 (Malme-3M): > 100 µM (inactive)
GI50 (TK-10): > 100 µM (inactive)
GI50 (T47D): 45.1 µM (inactive)
GI50 (IGROV-1): 9.23 µM (inactive)
GI50 (SW-620): > 100 µM (inactive)
GI50 (NCI-H23): 58.5 µM (inactive)
GI50 (SK-MEL-28): > 100 µM (inactive)
GI50 (786-0): > 100 µM (inactive)
GI50 (OVCAR-8): 69.7 µM (inactive)
GI50 (NCI-H226): 53 µM (inactive)
GI50 (UACC-62): > 100 µM (inactive)
GI50 (U-251): 93.3 µM (inactive)
GI50 (M14): > 100 µM (inactive)
GI50 (NCI/ADR-RES): 49.9 µM (inactive)
GI50 (DU-145): > 100 µM (inactive)
GI50 (SN12C): > 100 µM (inactive)
GI50 (A498): 57 µM (inactive)
GI50 (HCT-116): 50 µM (inactive)
GI50 (MOLT-4): 6.55 µM (inactive)
GI50 (SNB-19): > 100 µM (inactive)
GI50 (SK-OV-3): > 100 µM (inactive)
GI50 (LOX IMVI): 44 µM (inactive)

Cc1n[nH]c(=O)n1N1C(=O)CCCC1=O
GI50 (SK-MEL-5): > 100 µM (inactive)
GI50 (MDA-MB-435): > 100 µM (inactive)
GI50 (SF-295): > 100 µM (inactive)
GI50 (PC-3): > 100 µM (inactive)
GI50 (HOP-62): > 100 µM (inactive)
GI50 (K562): 63.4 µM (inactive)
GI50 (EKVX): > 100 µM (inactive)
GI50 (MCF7): > 100 µM (inactive)
GI50 (CCRF-CEM): > 100 µM (inactive)
GI50 (SK-MEL-2): > 100 µM (inactive)
GI50 (MDA-N): > 100 µM (inactive)
GI50 (BT-549): > 100 µM (inactive)
GI50 (COLO 205): > 100 µM (inactive)
GI50 (UACC-257): > 100 µM (inactive)
GI50 (A549): > 100 µM (inactive)
GI50 (SF-268): > 100 µM (inactive)
GI50 (SF-539): > 100 µM (inactive)
GI50 (CAKI-1): > 100 µM (inactive)
GI50 (HCC 2998): > 100 µM (inactive)
GI50 (MDA-MB-231): > 100 µM (inactive)
GI50 (Hs-578T): > 100 µM (inactive)
GI50 (HT-29): > 100 µM (inactive)
GI50 (OVCAR-3): > 100 µM (inactive)
GI50 (RXF 393): > 100 µM (inactive)
GI50 (OVCAR-5): > 100 µM (inactive)
GI50 (SNB-75): > 100 µM (inactive)
GI50 (Malme-3M): > 100 µM (inactive)
GI50 (TK-10): > 100 µM (inactive)
GI50 (T47D): > 100 µM (inactive)
GI50 (IGROV-1): > 100 µM (inactive)
GI50 (NCI-H23): > 100 µM (inactive)
GI50 (786-0): > 100 µM (inactive)
GI50 (OVCAR-8): > 100 µM (inactive)
GI50 (NCI-H226): > 100 µM (inactive)
GI50 (UACC-62): > 100 µM (inactive)
GI50 (U-251): > 100 µM (inactive)
GI50 (NCI-H522): > 100 µM (inactive)
GI50 (M14): > 100 µM (inactive)
GI50 (NCI/ADR-RES): > 100 µM (inactive)
GI50 (DU-145): > 100 µM (inactive)
GI50 (SN12C): > 100 µM (inactive)
GI50 (A498): > 100 µM (inactive)
GI50 (HCT-116): > 100 µM (inactive)
GI50 (MOLT-4): 22.6 µM (inactive)
GI50 (SK-OV-3): > 100 µM (inactive)

CC1(C)Oc2ccc3c(=O)c(-c4ccccc4)c(-c4ccccc4)oc3c2C1C(=O)O (stereo unspecified)
GI50 (SK-MEL-5): > 100 µM (inactive)
GI50 (MDA-MB-435): > 100 µM (inactive)
GI50 (SF-295): > 100 µM (inactive)
GI50 (PC-3): > 100 µM (inactive)
GI50 (HOP-62): > 100 µM (inactive)
GI50 (K562): 63 µM (inactive)
GI50 (EKVX): > 100 µM (inactive)
GI50 (MCF7): > 100 µM (inactive)
GI50 (CCRF-CEM): > 100 µM (inactive)
GI50 (SK-MEL-2): > 100 µM (inactive)
GI50 (MDA-N): > 100 µM (inactive)
GI50 (BT-549): > 100 µM (inactive)
GI50 (COLO 205): > 100 µM (inactive)
GI50 (UACC-257): > 100 µM (inactive)
GI50 (A549): > 100 µM (inactive)
GI50 (SF-268): > 100 µM (inactive)
GI50 (SF-539): > 100 µM (inactive)
GI50 (CAKI-1): > 100 µM (inactive)
GI50 (HCC 2998): > 100 µM (inactive)
GI50 (HCT-15): 33.3 µM
GI50 (MDA-MB-231): > 100 µM (inactive)
GI50 (Hs-578T): 64.9 µM (inactive)
GI50 (HT-29): > 100 µM (inactive)
GI50 (OVCAR-3): > 100 µM (inactive)
GI50 (OVCAR-4): 77.1 µM (inactive)
GI50 (RXF 393): > 100 µM (inactive)
GI50 (OVCAR-5): > 100 µM (inactive)
GI50 (Malme-3M): > 100 µM (inactive)
GI50 (TK-10): > 100 µM (inactive)
GI50 (T47D): > 100 µM (inactive)
GI50 (IGROV-1): > 100 µM (inactive)
GI50 (NCI-H23): > 100 µM (inactive)
GI50 (786-0): > 100 µM (inactive)
GI50 (OVCAR-8): > 100 µM (inactive)
GI50 (NCI-H226): > 100 µM (inactive)
GI50 (UACC-62): > 100 µM (inactive)
GI50 (U-251): > 100 µM (inactive)
GI50 (NCI-H522): > 100 µM (inactive)
GI50 (M14): > 100 µM (inactive)
GI50 (NCI/ADR-RES): > 100 µM (inactive)
GI50 (DU-145): > 100 µM (inactive)
GI50 (SN12C): > 100 µM (inactive)
GI50 (A498): > 100 µM (inactive)
GI50 (HCT-116): > 100 µM (inactive)
GI50 (MOLT-4): 48.3 µM (inactive)
GI50 (SK-OV-3): > 100 µM (inactive)

c1ccc2c(CN3CCC(C4CCN(Cc5cccc6ccccc56)CC4)CC3)cccc2c1
GI50 (NCI-H460): 16.3 µM (inactive)
GI50 (SK-MEL-5): 4.89 µM (inactive)
GI50 (MDA-MB-435): 3.52 µM (inactive)
GI50 (SF-295): 6.28 µM (inactive)
GI50 (PC-3): 32.8 µM (inactive)
GI50 (HOP-62): 25.4 µM (inactive)
GI50 (K562): 1.6 µM (inactive)
GI50 (MCF7): 26.5 µM (inactive)
GI50 (ACHN): 33.3 µM (inactive)
GI50 (SK-MEL-2): 8.41 µM (inactive)
GI50 (MDA-N): 8.13 µM (inactive)
GI50 (RPMI-8226): 2.57 µM (inactive)
GI50 (BT-549): > 56 µM (inactive)
GI50 (COLO 205): 1.77 µM (inactive)
GI50 (UACC-257): 3.48 µM (inactive)
GI50 (A549): 62.7 µM (inactive)
GI50 (HL-60): 3.01 µM (inactive)
GI50 (HCC 2998): 1.77 µM (inactive)
GI50 (MDA-MB-231): 21.4 µM (inactive)
GI50 (Hs-578T): 32.1 µM (inactive)
GI50 (HT-29): 3.28 µM (inactive)
GI50 (OVCAR-3): > 58.6 µM (inactive)
GI50 (RXF 393): 21.8 µM (inactive)
GI50 (Malme-3M): 3.47 µM (inactive)
GI50 (TK-10): 20.1 µM (inactive)
GI50 (T47D): 23.1 µM (inactive)
GI50 (786-0): 16.3 µM (inactive)
GI50 (UACC-62): 7.43 µM (inactive)
GI50 (U-251): 16.5 µM (inactive)
GI50 (NCI-H522): 8.53 µM (inactive)
GI50 (M14): 1.98 µM (inactive)
GI50 (NCI/ADR-RES): 38.3 µM (inactive)
GI50 (DU-145): 86.1 µM (inactive)
GI50 (MOLT-4): 5.27 µM (inactive)
GI50 (SK-OV-3): 28 µM (inactive)
